Several values for one entry are separate records, joined by “and”; a condition that tells them apart may be missing. Identical values can stand only once.
Key:
[1] = tested on: Thoroughbred racehorses with excessive mucus production; assay: Example 1: inhaled gaseous NO in Thoroughbred racehorses with excessive mucus, endoscopic mucus scoring; assay type: in vivo, equine; design: key to Mucus status: NG = No change in status; settings: for Side effects: equine study, inhaled administration
Source text: Six (6) Thoroughbred racehorses at a major racing jurisdiction were quarantined for two weeks, and each horse had evidence of excessive mucus production as surveyed by clinical presentation and by endoscopic exam. The horses were isolated from each other and were being medicated daily in series with several broad-spectrum antimicrobials routinely employed for respiratory infections in Equids. The results before the administration with gaseous NO had been unremarkable. […] All six horses were included in the study using gaseous NO.
The horses were brought individually to the veterinary hospital barn for further evaluation over the course of five days. An fiberoptic endoscope was passed to the level of the bifurcation of the trachea (carina-airway) with images recorded on videotape. A scoring system was used to indicate the presence or absence of mucus, as well as its severity, if present. This scoring system has been described by Dixon et. al., “Equine Pulmonary Disease: Ancillary Diagnostic Findings,” Equine Vet. Journal 27, 428-435, 1995, herein incorporated by reference in its entirety. A score of zero indicates the absence of mucus, while a score of 1 to 5 indicates increasing amounts of mucus observed endoscopically in the trachea. The attending Veterinarian conducting the examination did the scoring. All of the six horses scored 4 or higher before the initiation of the treatments.
Treatment intervention of inhaled gaseous Nitric Oxide was administered to all six horses during a five-day period. Five of the horses (#2-#6) received 100 breaths of 10,000 ppm resulting in, based on pulmonary mechanics, a lung concentration of approximately 160 ppm. Horse #1 received 100 breaths of 5000 ppm resulting in 80 ppm on Day #1 and a second administration of 100 breaths of 10,000 ppm on Day #5. Horse #5 received 100 breaths of 10,000 ppm on Day #3 and a second administration of 100 breaths of 10,000 ppm on Day #4.
An outline of the treatment results is provided below in Table No. 1 (with scores when available). […] On a day where a measurement and a treatment occur, such as Day #4 for Horse #5, the measurement was taken before the administration of the second dosage.

[2] = tested on: Standardbred horses with excessive mucus accumulation; assay: Example 2: inhalant Nitric Oxide gas in Standardbred horses with excessive mucus accumulation, post race endoscopic mucus score; assay type: in vivo, equine; design: key to Decrease in Mucus Score: Dixon score: 0 = no mucus, 1-5 = increasing mucus; pre minus post
Source text: Twenty-seven Standardbred horses were referred to this study with a history of poor performance and with evidence of excessive mucus accumulation as surveyed by endoscopic exam. This was a single site population study and the subjects served as their own control.
Horses were examined pretreatment by videoendocscopy on a minimum of two consecutive occasions post race, one week or longer between scopings, to document the degree and persistence of mucus residence. The endoscope was passed to the level of the bifurcation of the trachea (carina) with images logged on a video recorder. The Dixon et al. scoring system was used to indicate the presence or absence of mucus, as well as its severity, if present. Zero indicates absence of mucus, and 1 to 5 indicating increasing amounts of mucus observed endoscopically in the trachea. Scoring was done by the veterinarian conducting the examination, then later by another “blinded” individual using the recorded examination.
Treatment via a metered delivery device was provided that included a source of nitric oxide from a pressurized gas cylinder and a delivery interface with the subject's nare. The Nitric Oxide delivery device is enabled by a microprocessor-based computer (Pulmonox Medical Inc, Tofield, Alberta, Canada) wherein a proportionate flow rate of Nitric Oxide gas is delivered based on the horse's tidal volume/minute ventilation with a resulting airway/pulmonary concentration of 160-200 ppm.
Upon enrollment in the study a candidate for the treatment intervention was administered 100 breathes of NO gas as previously described for a minimum of three days. A follow up endoscopic exam on the next available immediate post race was performed and a mucus score assigned. Post race endoscopic exams were continued for several events as a measurable outcome. Depending on the results (i.e. no change or a graded increase in mucus scores) multiple treatment cycles were continued and the results recorded via post race endoscopic exam over the next of several weeks.

bovine = assay: Preliminary experiments with bovine, mucus hydrolyzed and excreted from the nares; assay type: in vivo
Source text: Thus, the Applicants believe that inhaled gaseous NO as an effective treatment to excess mucus accumulation in the airways of mammals.

healthy bovine = assay: Preliminary experiments with healthy bovine, prevention of mucus accumulation; assay type: in vivo; settings: inhaled
Source text: Additionally, inhaled nitric oxide containing gas may act as a preventative measure in the accumulation of mucus in the airways. […] Such a risk may be associated with recent infection and/or contact with other infected mammals. […] The delivery of inhaled nitric oxide containing gas may be administered to these risk mammals in order to prevent mucus accumulation in the airway. Effective therapeutic amounts may also refer to an amount sufficient to break down the viscoelastic mucus and increase mucociliary transport in the mammal's airway and to increase MMC in the mammal. Therefore, treating mucus accumulation in the airways of a mammal comprises reducing mucus accumulation, preventing mucus accumulation, reducing mucociliary dyskinesia, and/or preventing mucociliary dyskinesia.

In the case of [N]=O [gNO, Nitric Oxide], the “Mucus score (endoscopic, 0-5)” value ([1]; Horse #1, Day #2, Tx 100 breaths at 5000 ppm on Day #1) is reported as “Clear (0)”, the “Return of the previous amount of mucus (amount before administration of gNO), not scored” value (from here on “Return of the previous amount … not scored”) ([1]; Horse #1, Day #3, Tx 100 breaths at 5000 ppm on Day #1) is reported as 25% rtn and the Mucus status ([1]; Horse #1, Day #4, Tx 100 breaths at 5000 ppm on Day #1) is reported as “NG”. The Mucus status ([1]; Horse #1, Day #5, before second Tx (10,000 ppm), Tx 5000 ppm on Day #1) was “NG, Tx 10k”, the “Mucus score (endoscopic, 0-5)” value ([1]; Horse #1, Day #6, Tx 5000 ppm Day #1 and Tx 100 breaths at 10,000 ppm Day #5) was “Trace (1)” and the “Mucus score (endoscopic, 0-5)” value ([1]; Horse #2, Day #2, Tx 100 breaths at 10,000 ppm on Day #1) was “Clear (0)”. The “Return of the previous amount … not scored” value ([1]; Horse #2, Day #3, Tx 100 breaths at 10,000 ppm on Day #1) was 25% rtn, the Mucus status ([1]; Horse #2, Day #4, Tx 100 breaths at 10,000 ppm on Day #1) was “NG” and the Mucus status ([1]; Horse #2, Day #5, Tx 100 breaths at 10,000 ppm on Day #1) was “NG”. For the same compound, the “Mucus score (endoscopic, 0-5)” value ([1]; Horse #3, Day #3, Tx 100 breaths at 10,000 ppm on Day #2) was “Clear (0)”, the Mucus status ([1]; Horse #3, Day #4, Tx 100 breaths at 10,000 ppm on Day #2) was “NG” and the “Mucus score (endoscopic, 0-5)” value ([1]; Horse #3, Day #5, Tx 100 breaths at 10,000 ppm on Day #2) was “Trace (2)”. For the same compound, the “Mucus score (endoscopic, 0-5)” value ([1]; Horse #4, Day #4, Tx 100 breaths at 10,000 ppm on Day #3) was “Clear (0)”, the “Return of the previous amount … not scored” value ([1]; Horse #4, Day #5, Tx 100 breaths at 10,000 ppm on Day #3) was 25% rtn and the “Mucus score (endoscopic, 0-5)” value ([1]; Horse #5, Day #4, before second dosage, Tx 100 breaths at 10,000 ppm on Day #3) was “Clear (0),”. For the same compound, the “Mucus score (endoscopic, 0-5)” value ([1]; Horse #5, Day #5, Tx 100 breaths at 10,000 ppm on Day #3 and Day #4) was “Trace (2)”, the “Mucus score (endoscopic, 0-5)” value ([1]; Horse #5, Day #6, Tx 100 breaths at 10,000 ppm on Day #3 and Day #4) was “Trace (1)” and the “Mucus score (endoscopic, 0-5)” value ([1]; Horse #6, Day #6, Tx 100 breaths at 10,000 ppm on Day #5) was “Trace (2)”. The “Reduction in mucus from Day #1” value ([1]; Horses #2 and #4 (25% of the mucus returned, not scored)) was 75%, the Side effects [1] was “did not result in any irritation, inflammation or abnormal side effects” and the Side effects ([1]; listed as inhaled NO) was “no untoward side effects were observed”. For the same compound, the “Observation immediately following administration” value ([1]; horses, inhaled) was “non-viscous liquids started to flow out of the nares of the horses”, the “Time until non-viscous liquids start to flow out of the nares” value ([1]; six equine with excessive mucus accumulation, after inhalation) was 10 to 30 min and the Reduction of mucus ([1]; six equine, all subjects) was “reductions of mucus to trace levels in all subjects”. The “Response to additional treatment cycles” value ([2]; horses with recurrence to scores of 2 or more in the weeks following the first treatment) was “repeatable marked reduction in mucus scores following treatment”, the “Post-Mucus Score (after administering gNO)” value ([2]; individual horses 1-27, 100 breaths for a minimum of three days, airway concentration 160-200 ppm, post race endoscopy, Dixon scale 0-5) was 2 (6×) and 0 (7×) and 3 (2×) and 4 (2×) and 1 (4×) and 1.5 (2×) and 2.5 (4×) and the “Decrease in Mucus Score” value ([2]; individual horses 1-27, pre-score minus post-score, 100 breaths for a minimum of three days, 160-200 ppm) was “.5 (7×) and 1 (5×) and 2.5 (2×) and 3 (3×) and 3.5 (2×) and 2 (5×) and 1.5 and 0”. For the same compound, the “Number of horses with decrease in score by at least 0.5” value ([2]; of twenty-seven, Dixon et al. scale) was “Twenty five”, the “Number of horses with score reduction of at least 1” value ([2]; of twenty-seven, after a single treatment cycle) was “Eighteen” and the “Number of subjects with decrease in mucus score from 2 to 3.5” value ([2]; of twenty-seven, single or multiple treatments, transient reduction) was “Twelve”. The “Improvement in mucus scores post treatment” value ([2]; twenty-seven horses enrolled) was “all but two showed significant improvement in their mucus scores”, the “Time until mucus is hydrolyzed and excreted from the nares” value (bovine) was 10 to 30 min and the “Prevention of mucus accumulation” value (healthy bovine) was “results in the prevention of mucus accumulation”.

From patent US10987377B2, “Use of inhaled gaseous nitric oxide as a mucolytic agent or expectorant” (Advanced Inhalation Therapies (AIT), Ltd., priority 2004, dated 2021)
